The values that follow come from patent US9873709B2 (priority 2013, dated 2018).

The subject of this assay is JAK1-dependent STAT6 phosphorylation downstream of IL-13 stimulation in TF-1 human erythroleukemia cells. As to the kind of experiment: cells. The settings on record: TF-1, read-out: IL-13-pSTAT6 IC50.
For the compound `CN(Cc1ccc2ncccc2c1)C(=O)c1ccc(Nc2nc3c(C4=CCN(C(=O)CCC(F)(F)F)CC4)cccn3n2)cc1` [Example 2-460, N-methyl-N-(6-quinolylmethyl)-4-[[8-[1-(4,4,4-trifluorobutanoyl)-3,6-dihydro-2H-pyridin-4-yl]-[1,2,4]triazolo[1,5-a]pyridin-2-yl]amino]benzamide], the IC50 (usually the point on the concentration scale where inhibition reaches its midpoint) came out at 27.6 nM. Under `CC1CCCN(C2CCN(C(=O)c3ccc(Nc4nc5c(C6=CCN(C(=O)CCC(F)(F)F)CC6)cccn5n4)cc3)CC2)C1` (stereo not shown) [Example 2-461, 4,4,4-trifluoro-1-[4-[2-[4-[4-(3-methyl-1-piperidyl)piperidine-1-carbonyl]anilino]-[1,2,4]triazolo[1,5-a]pyridin-8-yl]-3,6-dihydro-2H-pyridin-1-yl]butan-1-one] stands 6.1 nM. For `O=C(CCC(F)(F)F)N1CC=C(c2cccn3nc(Nc4ccc(C(=O)N5CCN(CCn6ccnc6)CC5)cc4)nc23)CC1` [Example 2-462, 4,4,4-trifluoro-1-[4-[2-[4-[4-(2-imidazol-1-ylethyl)piperazine-1-carbonyl]anilino]-[1,2,4]triazolo[1,5-a]pyridin-8-yl]-3,6-dihydro-2H-pyridin-1-yl]butan-1-one], the IC50 worked out at 44.4 nM. Regarding `CC(C)N1CCC(CN(C)C(=O)c2ccc(Nc3nc4c(C5=CCN(C(=O)CCC(F)(F)F)CC5)cccn4n3)cc2)C1` (stereo not shown) [Example 2-463, N-[(1-isopropylpyrrolidin-3-yl)methyl]-N-methyl-4-[[8-[1-(4,4,4-trifluorobutanoyl)-3,6-dihydro-2H-pyridin-4-yl]-[1,2,4]triazolo[1,5-a]pyridin-2-yl]amino]benzamide], the IC50 came to 26 nM. On to `CN(C)C1CCN(C(=O)c2ccc(Nc3nc4c(C5=CCN(C(=O)CCC(F)(F)F)CC5)cccn4n3)cc2)C1` (stereo not shown) [Example 2-464, 1-[4-[2-[4-[3-(dimethylamino)pyrrolidine-1-carbonyl]anilino]-[1,2,4]triazolo[1,5-a]pyridin-8-yl]-3,6-dihydro-2H-pyridin-1-yl]-4,4,4-trifluoro-butan-1-one], for which the 50% inhibitory concentration (IC50) came to 9.1 nM. In the case of `O=C(NCCN1CCOCC1)c1ccc(Nc2nc3c(C4=CCN(C(=O)CCC(F)(F)F)CC4)cccn3n2)cc1` [Example 2-465, N-(2-morpholinoethyl)-4-[[8-[1-(4,4,4-trifluorobutanoyl)-3,6-dihydro-2H-pyridin-4-yl]-[1,2,4]triazolo[1,5-a]pyridin-2-yl]amino]benzamide], the IC50 stood at 9.4 nM. Under `O=C(NCCN1CCCC1)c1ccc(Nc2nc3c(C4=CCN(C(=O)CCC(F)(F)F)CC4)cccn3n2)cc1` [Example 2-466, N-(2-pyrrolidin-1-ylethyl)-4-[[8-[1-(4,4,4-trifluorobutanoyl)-3,6-dihydro-2H-pyridin-4-yl]-[1,2,4]triazolo[1,5-a]pyridin-2-yl]amino]benzamide] stands 17.9 nM; under `CN1CCC(CNC(=O)c2ccc(Nc3nc4c(C5=CCN(C(=O)CCC(F)(F)F)CC5)cccn4n3)cc2)CC1` [Example 2-467, N-[(1-methyl-4-piperidyl)methyl]-4-[[8-[1-(4,4,4-trifluorobutanoyl)-3,6-dihydro-2H-pyridin-4-yl]-[1,2,4]triazolo[1,5-a]pyridin-2-yl]amino]benzamide], 20.9 nM; under `Cc1cccc(C2CCN(C(=O)c3ccc(Nc4nc5c(C6=CCN(C(=O)CCC(F)(F)F)CC6)cccn5n4)cc3)CC2)n1` [Example 2-468, 4,4,4-trifluoro-1-[4-[2-[4-[4-(6-methyl-2-pyridyl)piperidine-1-carbonyl]anilino]-[1,2,4]triazolo[1,5-a]pyridin-8-yl]-3,6-dihydro-2H-pyridin-1-yl]butan-1-one], 12.8 nM. For `O=C(N[C@H]1CN2CCC1CC2)c1ccc(Nc2nc3c(C4=CCN(C(=O)CCC(F)(F)F)CC4)cccn3n2)cc1` [Example 2-469, N-[(3R)-quinuclidin-3-yl]-4-[[8-[1-(4,4,4-trifluorobutanoyl)-3,6-dihydro-2H-pyridin-4-yl]-[1,2,4]triazolo[1,5-a]pyridin-2-yl]amino]benzamide] the value was 83.8 nM.
